Measurements as given in paper PMC9228215, “Anion-Sensing Properties of Cyclopentaphenylalanine” (Molecules, 2022).
Where a SMILES comes first, the peptide text is derived from it.

Legend:
[1] = Isothermal titration calorimetry (microcalorimetry) of L with chloride; format: binding; settings: acetonitrile, 25.0 °C, measurements repeated three times
Method: Microcalorimetric measurements were conducted with an isothermal titration calorimeter Microcal VP-ITC at 25.0 °C. Thermograms were processed using the Microcal OriginPro 7.0 program (OriginLab Corporation, Northampton, MA, USA).
In the calorimetric studies of chloride complexation by L, the enthalpy changes were recorded upon stepwise additions of salt solution into the solution of cyclopeptide ligand (V0 = 1.4 cm^3). The heats measured in the titration experiments were corrected for the heats of titrant dilution obtained by blank experiments. The dependence of successive enthalpy changes on the titrant volume was processed by non-linear least-squares fitting procedure using OriginPro 7.5 program (OriginLab Corporation, Northampton, MA, USA). Measurements were repeated three times.

[2] = Solubility determination of L (saturated solutions, spectrophotometric); format: physicochemical
Method: Saturated solutions of L in acetonitrile and methanol were prepared by adding an excess amount of the solid substance to the solvent. The obtained mixtures were left in a thermostat at 25 °C for several days in order to equilibrate. The concentrations of saturated solutions were determined at 25.0 °C spectrophotometrically by means of a Varian Cary 5000 spectrophotometer equipped with a thermostatting device. Calibration curves were obtained by measuring the absorbances of solutions of known concentrations.

[3] = Comparison of stability constants in methanol and acetonitrile, chloride; format: binding; settings: 25 °C
Method: (§1) Fluorimetric titrations were conducted on Varian Cary Eclipse Fluorimeter, UV-Vis spectra were recorded by Agilent Cary 5000 spectrophotometer, and CD spectra were recorded on JASCO J815 spectrophotometer. Fluorimeter and UV-Vis spectrophotometer were connected to thermostating device, whereas CD titrations were performed at room temperature. The excitation wavelength used in all fluorimetric titrations was 260 nm, spectra were recorded at 2 nm interval with 0.4 s integration time, 10 nm excitation, and emission slits were used. In titrations with iodide, the obtained spectra were corrected by the anion concentration dependent solvent emission spectra. […] CD spectra were recorded in the 200–300 nm wavelength range with a 0.2 nm data pitch and scanning speed of 200 nm/min; 2 scans were accumulated for each spectrum. […]
^1H NMR titrations were carried out at 25 °C by means of a Bruker Avance III HD 400 MHz with a solvent signal used as a standard. […] Spectra were recorded at 16 pulses. ^1H NMR spectra were processed and visualized by means of MestReNova 6.1 software (Mestrelab Research, Santiago de Compostela, Spain). Stability constants of the corresponding complexes were determined from the obtained ^1H NMR spectra by using multivariate analysis implemented in HypNMR 4.0 software (Protonic Software, Leeds, UK) included in the Hyperquad program package. […]

[4] = Comparison of stability constants in methanol and acetonitrile, bromide; format: binding; settings: 25 °C
Method: as §1
^1H NMR titrations were carried out at 25 °C by means of a Bruker Avance III HD 400 MHz with a solvent signal used as a standard. […] Spectra were recorded at 16 pulses. ^1H NMR spectra were processed and visualized by means of MestReNova 6.1 software (Mestrelab Research, Santiago de Compostela, Spain). Stability constants of the corresponding complexes were determined from the obtained ^1H NMR spectra by using multivariate analysis implemented in HypNMR 4.0 software (Protonic Software, Leeds, UK) included in the Hyperquad program package.

[5] = cited from earlier work
Excerpt: The reaction enthalpy (−15 kJ mol^−1) and entropy (65 J mol^−1 K^−1) for L-Cl complex formation are close to the corresponding values for complexation of chloride with cyclopentaleucine (∆rH = −11 kJ mol^−1, ∆rS = 76 J mol^−1 K^−1). Therefore, the inclusion of fluorescent groups to the cyclopeptide sidechain improved the anion detection capability ...

Row | Molecule | Reaction enthalpy for L-Cl complex formation [1] [kcal/mol] | Reaction entropy for L-Cl complex formation [1] [J mol^−1 K^−1] | Transfer Gibbs energy of L (MeCN→MeOH) ([2]; determined from ligand solubilities in acetonitrile and methanol, 25 °C) | Solubility of free L in acetonitrile ([2]; thermodynamic, excess solid in acetonitrile, equilibrated several days at 25 °C, saturated solution measured spectrophotometrically (UV) at 25.0 °C with calibration curve) | Solubility of free L in methanol ([2]; thermodynamic, excess solid in methanol, equilibrated several days at 25 °C, saturated solution measured spectrophotometrically (UV) at 25.0 °C with calibration curve) | Decrease in stability constant in methanol compared to acetonitrile, in the log K value [3] | Decrease in stability constant in methanol compared to acetonitrile, in the log K value [4] | ∆rH for complexation of chloride with cyclopentaleucine [5] [kcal/mol] | ∆rS for complexation of chloride with cyclopentaleucine [5] [J mol^−1 K^−1]
1 | O=C1N[C@@H](Cc2ccccc2)C(=O)N[C@@H](Cc2ccccc2)C(=O)N[C@@H](Cc2ccccc2)C(=O)N[C@@H](Cc2ccccc2)C(=O)N[C@H]1Cc1ccccc1 [L, cyclopentaphenylalanine] (cyclo(FFFFF)) | -3.59 | 65 | negligible | (2.72 ± 0.02) × 10^−3 mol dm^−3 | (2.81 ± 0.03) × 10^−3 mol dm^−3 | about 4.5 | ~3.5 | – | –
2 | cyclopentaleucine | – | – | – | – | – | – | – | -2.63 | 76
